Molecular target: T1, human recombinant collagenase (Homo sapiens, UniProt P03956)
T1 construct: made in house; host or cells: E. coli
T1 sequence (P03956 100-469): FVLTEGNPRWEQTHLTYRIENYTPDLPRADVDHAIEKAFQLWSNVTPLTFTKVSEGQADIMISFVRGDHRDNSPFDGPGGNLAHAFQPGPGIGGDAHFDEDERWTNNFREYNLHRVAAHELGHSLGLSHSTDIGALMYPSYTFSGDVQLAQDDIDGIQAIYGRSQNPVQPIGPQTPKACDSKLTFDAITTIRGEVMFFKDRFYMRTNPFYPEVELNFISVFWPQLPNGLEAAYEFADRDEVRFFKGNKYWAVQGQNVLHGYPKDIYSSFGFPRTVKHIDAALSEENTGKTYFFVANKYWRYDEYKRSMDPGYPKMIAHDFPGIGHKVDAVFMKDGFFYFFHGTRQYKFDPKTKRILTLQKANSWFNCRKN
Assay: Collagenase inhibition assay
Type: biochemical
Conditions: acetylated 3H type 1 bovine collagen, 37° C., 18 h
Description: Procedure 2: The ability of test compounds to inhibit collagenase was investigated using the following procedure.
Collagenase Inhibition Assay:
The potency of compounds to act as inhibitors of collagenase was determined by the method of Cawston and Barrett (Anal. Biochem. 99, 340-345, 1979), hereby incorporated by reference, whereby a 1 mM solution of the inhibitor being tested or dilutions thereof, was incubated at 37° C. for 18 h with collagen and human recombinant collagenase, from synovial fibroblasts cloned, expressed and purified from E. Coli, (buffered with 150 mM Tris, pH 7.6. containing 15 mM calcium chloride, 0.05% Brij 35.200 mM sodium chloride and 0.02% sodium azide). The collagen was acetylated ^3H type 1 bovine collagen prepared by the method of Cawston and Murphy (methods in Enzymology 80. 711,1981) The samples were centrifuged to sediment undigested collagen and an aliquot of the radioactive supernatant removed for assay on a scintillation counter as a measure of hydrolysis. The collagenase activity in the presence of 1 mM inhibitor, or dilution thereof, was compared to activity in a control devoid of inhibitor and the results reported as that concentration effecting 50% of the collagenase (IC50).

IC50, ≤ 10 µM:
O=C(NO)[C@@H](C1CCCCC1)N(Cc1ccco1)S(=O)(=O)Cc1ccc2sccc2c1 [Example 14, (R)-2-[(Benzo[b]thiophen-5-ylmethanesulfonyl)(furan-2-ylmethyl)-amino]-2-cyclohexyl-N-hydroxy-acetamide]
O=C(NO)C(c1ccccc1)N(Cc1cccnc1)S(=O)(=O)Cc1ccc2sccc2c1 (racemic) [Example 2, (R,S)-2-[(Benzo[b]thiophen-5-ylmethanesulfonyl)(pyridin-3-ylmethyl)-amino]-N-hydroxy-2-phenylacetamide]
COCCOCCN([C@@H](C(=O)NO)c1ccccc1)S(=O)(=O)Cc1ccc2sccc2c1 [Example 1, (R)-2-{(Benzo[b]thiophen-5-ylmethanesulfonyl)[2-(2-methoxyethoxy)-ethyl]amino}-N-hydroxy-2-phenylacetamide]
CC(C)C[C@H](C(=O)NO)N(Cc1cccnc1)S(=O)(=O)Cc1ccc2sccc2c1 [Example 8]
